Patent US9162979B2, “1,5-Diary1-2-alkylpyrrole-3-substituted nitro esters, selective COX-2 inhibitors and nitric oxide donors” (ROTTAPHARM BIOTECH S.R.L., priority 2010, dated 2015)

Key:
COX-2 = COX-2 (Mus musculus (Mouse), UniProt Q05769); assay: Evaluation of COX-2 activity: PGE2 production in LPS-stimulated J774 cells; assay type: cell-based, murine; conditions: J774 cells stimulated 24 hours with LPS 10 μg/mL; PGE2 by radio-immunological assay; read-out: Cyclooxygenase inhibition COX-2 IC50
In short: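 Murine J774 macrophages switched to serum-free medium before stimulation; PGE2 in supernatants measured by radioimmunoassay, triplicate wells per condition. IC50 with 95% intervals from sigmoidal variable-slope dose-response fit.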

[1] = test system: isolated rings of thoracic aorta; assay: Evaluation of release of NO: vasorelaxing activity on endothelium-denuded aortic rings contracted with KCl; parameters: species or system rat; key to NO release properties Emax (maximum vasorelaxing effect) / NO release properties pIC50 (vasorelaxing potency): S.E: Scarcely Effective: it is not possible to detect NO release comparable to the other compounds mentioned here; conditions: for Emax: read-out: NO release properties Emax (maximum vasorelaxing effect)
In short: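 Endothelium-denuded male Wistar rat thoracic aorta rings (2 g preload, Tyrode, 37 °C, 95% O2/5% CO2) precontracted with 20 mM KCl, then given cumulative test compound (1 nM–10 μM). Relaxation as % of KCl tone; Emax and pIC50 reported as mean±SE of 5–10 experiments. Also repeated with 1 μM ODQ.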

[2] = test system: mouse abdominal contraction (writhing) induced by acetic acid; assay: Abdominal constriction test induced by acetic acid; assay type: in vivo
Procedure: (§1) Male Swiss albino mice (23-25 g) and Wistar rats (150-200 g) were used.
The antinociceptive activity was determined by the mouse abdominal contraction test using acetic acid (0.6%), which induces writhing, according to Koster's method (Fed. Proc., 1959, 18, 412-418). The number of stretching movements was counted for 10 minutes, starting 5 minutes after injection of acetic acid. The results relating to analgesic activity in the abdominal constriction test with representative compounds of the invention are shown in Table 10.
The test was carried out using 10 animals in the treated group and 20 in the control group (CMC); all the compounds were administered per os with the exception of the compound of Example 8, which was administered i.p.

[3] = test system: carrageenan-induced inflammatory state in the rat; assay: Carrageenan test: nociceptive threshold (weight supported); assay type: in vivo; conditions: for Weight supported (g) Before treatment: baseline before treatment
Procedure: as §1
The nociceptive threshold in the rat was determined with an analgesiometer, as described by Leighton et al. (Br. J. Pharmacol., 1988, 93, 553-560), the pressure was measured before the treatment and after 30 and 60 min. To reproduce the inflammatory state in the rat, carrageenan was administered i.p. (0.1 ml, 1%) 4 h before the test.
(§2) The test was performed using 6 animals per group, all the compounds were administered per os, 30 min before the test. The carrageenan is administered 2 h before the test.

[4] = test system: rat paw oedema induced by carrageenan; assay: Volume of oedema test (carrageenan); assay type: in vivo
Procedure: The rat paw volumes were measured using a pletismometer. Four hours after injecting carrageenan 1.0% (0.1 ml injection), the volume of the right hind-paw was measured and compared with that of controls treated with a saline/carrageenan solution. The rats were administered the test compounds 3.5 hours after the carrageenan. The results are given as paw volume expressed in ml. The results relating to the analgesic and anti-oedemic activity in the carrageenan test for some representative compounds of the invention are shown in Table 11.
as §2

[5] = test system: MIA-induced osteoarthritis; assay: Chronic pain from MIA-induced osteoarthritis; assay type: in vivo, rat; conditions: 20 mg/kg per os twice daily for 14 days
Procedure: The compounds are administered per os at a dose of 20 mg/kg twice daily for 14 days. Monosodium iodoacetate (MIA), 2 mg in 25 μL is injected in the left knee of anaesthetized rats, the test is carried out according to the literature. Each experiment represents the mean value for 5 animals.

rat liver homogenate [6] = conditions: 1 mM
From the text: (§3) By evaluating the time-dependent increase in nitrite concentrations in the liver homogenate, it was possible to extrapolate two descriptive parameters:
(§4) Time (in minutes) required for an amount of nitrite to be released by the test compound equal to half its maximum release.

rat liver homogenate [7] = assay: Evaluation of release of nitrites in hepatic homogenate; conditions: for Maximum release (%): nitrite after 4 hours, 1 mM, 37° C., as percentage of SNP
From the text: as §3, §4

[8] = test system: carrageenan-induced inflammatory state in the rat; assay: Carrageenan test: nociceptive threshold (weight supported); assay type: in vivo; conditions: 20 mg/kg per os
[9] = Rattus norvegicus, relative to contractile tone induced by 20 mM KCl, 1 nM-10 μM

Chain of COX-2 (Q05769 18-604): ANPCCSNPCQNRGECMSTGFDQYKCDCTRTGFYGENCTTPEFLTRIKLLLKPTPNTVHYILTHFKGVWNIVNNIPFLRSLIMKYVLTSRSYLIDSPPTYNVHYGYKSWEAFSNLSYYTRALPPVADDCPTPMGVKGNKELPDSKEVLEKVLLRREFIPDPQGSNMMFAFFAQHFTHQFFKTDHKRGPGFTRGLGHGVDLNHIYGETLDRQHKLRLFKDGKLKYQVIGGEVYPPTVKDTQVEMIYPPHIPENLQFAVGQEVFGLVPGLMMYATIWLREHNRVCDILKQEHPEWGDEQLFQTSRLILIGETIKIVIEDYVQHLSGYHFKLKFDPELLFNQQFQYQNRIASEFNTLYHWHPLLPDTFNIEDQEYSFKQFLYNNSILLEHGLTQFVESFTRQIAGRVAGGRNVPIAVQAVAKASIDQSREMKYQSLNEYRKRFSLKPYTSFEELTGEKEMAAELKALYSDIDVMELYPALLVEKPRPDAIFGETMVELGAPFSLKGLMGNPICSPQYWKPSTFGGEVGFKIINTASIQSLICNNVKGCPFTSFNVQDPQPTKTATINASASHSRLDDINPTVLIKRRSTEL

## Cc1c(CCOCCO[N+](=O)[O-])cc(-c2ccc(S(C)(=O)=O)cc2)n1-c1ccc(F)cc1 [Example 37, 2-[2-[2-(1-(4-Fluorophenyl)-2-methyl-5-(4-methylsulphonylphenyl)-1H-pyrrol-3-yl]ethoxy]ethyl Nitrate]
COX-2
  IC50: 14 nM
[1]; [9]
  Emax: 49 ± 3%
[2]; 10 mg/kg per os
  N writhes: 19.1 ± 2.7
[2]; 20 mg/kg per os
  N writhes: 15.2 ± 3.3
[3]; 10 mg/kg per os
  Weight supported (g) After treatment 30 min: 55.1 ± 4.7 g
  Weight supported (g) After treatment 60 min: 52.6 ± 4.0 g
  Weight supported (g) Before treatment: 34.7 ± 2.7 g
[4]; 10 mg/kg per os
  Oedema Volume: 1.87 ± 0.07 mL
[5]
  Weight supported (g) After treatment 30 min: 45.1 ± 3.7 g
  Weight supported (g) After treatment 4 h: 39.1 ± 3.5 g
  Weight supported (g) After treatment 24 h: 33.8 ± 3.7 g
[5]; baseline before treatment
  Weight supported (g) Before treatment: 34.6 ± 3.1 g
Rat liver homogenate [6]
  T ½: 42.8 ± 6.9 min
Rat liver homogenate [7]
  Maximum release (%): 25 ± 3%

## COc1ccc2cc([C@H](C)C(=O)OCCCCO[N+](=O)[O-])ccc2c1 [Naproxcinod, naproxcinod, reference compound]
[1]; Rattus norvegicus, concentration reducing contractile tone induced by 20 mM KCl by half, read-out: NO release properties pIC50 (vasorelaxing potency) (converted)
  IC50: 5250 nM
[1]; [9]
  Emax: 62 ± 4%
[3]; 10 mg/kg per os
  Weight supported (g) After treatment 30 min: 47.9 ± 3.5 g
  Weight supported (g) After treatment 60 min: 46.2 ± 3.8 g
  Weight supported (g) Before treatment: 33.5 ± 3.7 g
[3]; 30 mg/kg per os
  Weight supported (g) After treatment 30 min: 48.2 ± 2.8 g
  Weight supported (g) After treatment 60 min: 43.9 ± 3.7 g
  Weight supported (g) Before treatment: 32.7 ± 3.8 g
[4]; 10 mg/kg per os
  Oedema Volume: 1.95 ± 0.07 mL
[4]; 30 mg/kg per os
  Oedema Volume: 1.88 ± 0.07 mL
Rat liver homogenate [6]
  T ½: 8.6 ± 2.9 min
Rat liver homogenate [7]; incubation in rat liver homogenate
  course of nitrite release: very rapid, slight release of nitrites
Rat liver homogenate [7]
  Maximum release (%): 20 ± 1 %

## Cc1c(CCOCCCO[N+](=O)[O-])cc(-c2ccc(S(C)(=O)=O)cc2)n1-c1ccc(F)cc1 [Example 41, 3-[2-[2-(1-(4-Fluorophenyl)-2-methyl-5-(4-methylsulphonylphenyl)-1H-pyrrol-3-yl)]ethoxy]propyl Nitrate]
COX-2
  IC50: 190 nM
[1]; relative to contractile tone induced by 20 mM KCl, 1 nM-10 μM
  NO release properties Emax (maximum vasorelaxing effect): S.E.
[3]; 20 mg/kg per os
  Weight supported (g) After treatment 30 min: 49.2 ± 3.7 g
  Weight supported (g) After treatment 60 min: 50.7 ± 3.8 g
  Weight supported (g) Before treatment: 30.9 ± 2.8 g
[4]; 20 mg/kg per os
  Oedema Volume: 1.85 ± 0.08 mL
[8]
  Weight supported after 120 min: 45.2±4.1
